Measured values reported in PubChem BioAssay (NCI).
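Step 1: Grow cells in 96-well plates. Step 2: Expose to compound for 48 hours at 5 concentrations. Step 3: Interpolate endpoints linearly; if unreached, use highest concentration. TGI: total growth inhibition.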

Columns and labels:
Test in all cases: DTP human tumour cell line panel, 48 h
[1] = test system: MDA-N
[2] = test system: SK-MEL-5 melanoma
[3] = test system: IGROV1 ovarian
[4] = test system: UACC-257 melanoma
[5] = test system: CAKI-1 renal
[6] = test system: UO-31 renal
[7] = test system: SK-MEL-28 melanoma
[8] = test system: HCT-116 colon
[9] = test system: RPMI-8226 leukemia
[10] = test system: 786-0 renal
[11] = test system: EKVX NSCLC
[12] = test system: SN12C renal
[13] = test system: KM12 colon
[14] = test system: CCRF-CEM leukemia
[15] = test system: HOP-62 NSCLC
[16] = test system: SK-OV-3 ovarian
[17] = test system: MALME-3M melanoma
[18] = test system: OVCAR-3 ovarian
[19] = test system: HCC-2998 colon

| Compound | TGI [1] [µM] | TGI [2] [µM] | TGI [3] [µM] | TGI [4] [µM] | TGI [5] [µM] | TGI [6] [µM] | TGI [7] [µM] | TGI [8] [µM] | TGI [9] [µM] | TGI [10] [µM] | TGI [11] [µM] | TGI [12] [µM] | TGI [13] [µM] | TGI [14] [µM] | TGI [15] [µM] | TGI [16] [µM] | TGI [17] [µM] | TGI [18] [µM] | TGI [19] [µM] |
| --- | --- | --- | --- | --- | --- | --- | --- | --- | --- | --- | --- | --- | --- | --- | --- | --- | --- | --- | --- |
| Cc1cc(C2(O)C=C(C(C)(C)C)C(=O)C(C(C)(C)C)=C2)c(C)cc1C1(O)C=C(C(C)(C)C)C(=O)C(C(C)(C)C)=C1 | > 100 | > 100 | > 100 | > 100 | > 100 | > 100 | > 100 | > 100 | > 100 | > 100 | > 100 | > 100 | > 100 | > 100 | > 100 | > 100 | > 100 | – | – |
| COC(=O)[C@@H]1CCCN1CCN1CCC[C@H]1C(=O)OC | > 100 | > 100 | – | – | > 100 | > 100 | > 100 | > 100 | > 100 | > 100 | – | > 100 | > 100 | – | > 100 | > 100 | > 100 | > 100 | – |
| CN(C)Cc1cc(C(=O)/C=C/c2ccccc2Cl)cc(CN(C)C)c1O | 34.1 | 26.1 | 28 | 30.1 | 14.4 | 22.4 | 27.9 | 19.8 | 56.5 | 21.4 | 30.6 | 23.6 | 20.3 | 8.82 | 26.2 | – | 23.5 | 30.5 | 36.6 |
| Nc1ccc(N=Nc2ccccc2)cc1 | > 100 | > 100 | > 100 | > 100 | > 100 | > 100 | > 100 | > 100 | – | > 100 | > 100 | > 100 | > 100 | > 100 | > 100 | > 100 | > 100 | 69.1 | > 100 |
| O=c1[nH]nc(Cc2ccc([N+](=O)[O-])cc2)n1CCO | > 100 | > 100 | > 100 | > 100 | > 100 | > 100 | > 100 | > 100 | > 100 | > 100 | > 100 | > 100 | > 100 | – | – | > 100 | > 100 | > 100 | > 100 |
| CN(O)C(=O)c1cccc(Cl)c1 | > 100 | > 100 | > 100 | > 100 | > 100 | > 100 | > 100 | > 100 | > 100 | > 100 | > 100 | > 100 | > 100 | > 100 | > 100 | > 100 | – | > 100 | > 100 |
| NCCSc1nc2ccccc2c(=O)n1-c1ccccc1 | > 100 | > 100 | > 100 | > 100 | > 100 | > 100 | > 100 | > 100 | – | > 100 | > 100 | > 100 | > 100 | > 100 | > 100 | > 100 | > 100 | > 100 | > 100 |
| COC(=O)C1=CC(=O)OC1(OO)c1ccccc1 (stereo not given) | > 100 | > 100 | > 100 | > 100 | > 100 | > 100 | > 100 | > 100 | – | > 100 | > 100 | > 100 | > 100 | 51.1 | – | > 100 | > 100 | > 100 | > 100 |
| CCn1nc2c3c(ncn3C(C)(C)O2)c1=O | > 100 | > 100 | > 100 | > 100 | > 100 | > 100 | > 100 | > 100 | > 100 | > 100 | > 100 | > 100 | > 100 | > 100 | > 100 | > 100 | > 100 | – | > 100 |
| CN(NC(=O)c1cccs1)C1=NCCCN1 | > 100 | > 100 | > 100 | > 100 | – | > 100 | > 100 | > 100 | > 100 | > 100 | > 100 | – | > 100 | > 100 | > 100 | > 100 | > 100 | > 100 | > 100 |
| CCN1C(=O)C(=C/C=C/c2ccc([N+](=O)[O-])cc2)C(=O)N(CC)C1=S | 67 | 42.8 | 32.6 | 32.2 | 68.7 | 37.2 | 31.9 | 31.9 | 95.8 | 34.3 | 62.7 | 57.3 | 60.7 | > 100 | 39.2 | > 100 | – | 32.9 | > 100 |
| CC(=O)c1ccc2c3c1[C@@H]1O[C@@H]1c1cccc(c1-3)[C@@H]1O[C@H]21 | 39.9 | 26 | 2.44 | > 60.2 | 15 | 30.2 | 13 | 13.9 | > 100 | 24.9 | 39.5 | 23.9 | 21.4 | > 100 | 36.6 | 76.1 | 20.3 | 30.4 | – |
| Cc1ccn2c(=O)cc(-c3ccccc3)nc2c1 | > 100 | > 100 | > 100 | > 100 | – | – | > 100 | > 100 | > 100 | > 100 | > 100 | > 100 | > 100 | > 100 | > 100 | > 100 | > 100 | > 100 | > 100 |
| CC1CCOc2ccc(cc2)C=Nc2ccc(cc2)CCc2ccc(cc2)N=Cc2ccc(cc2)OCC1 (stereo not given) | > 100 | > 100 | > 100 | > 100 | > 100 | > 100 | > 100 | > 100 | > 100 | > 100 | > 100 | > 100 | > 100 | > 100 | > 100 | – | > 100 | > 100 | > 100 |
| Cc1ccc2nc(Cl)c(/C=N/N3C(=O)/C(=C/c4ccccc4S)N=C3c3ccccc3)cc2c1 | 40.5 | > 100 | > 100 | > 100 | > 100 | > 100 | > 100 | > 100 | 68.1 | > 100 | > 100 | > 100 | > 100 | > 100 | > 100 | > 100 | – | 28.2 | > 100 |
| CC(=O)N1N=C(c2ccc3ccccc3c2O)CC1C(=O)c1ccco1 (stereo not given) | > 100 | > 100 | > 100 | > 100 | > 100 | > 100 | > 100 | > 100 | 85 | > 100 | – | > 100 | 44.8 | 24.9 | > 100 | > 100 | > 100 | > 100 | 55.5 |
| CCOC(=O)c1ccc(N2C(=S)N(C(=O)c3ccccc3)C(=Nc3ccccc3)C2=Nc2ccccc2)cc1 | > 100 | > 100 | > 100 | > 100 | > 100 | > 100 | > 100 | – | > 100 | > 100 | > 100 | > 100 | > 100 | – | > 100 | > 100 | > 100 | > 100 | > 100 |
| Cc1ccc2c(c1)[nH]c1cc(C(F)(F)F)ccc1[p+]2=O (stereo not given) | > 100 | 34 | > 100 | 66 | > 100 | – | > 100 | > 100 | – | > 100 | 22.2 | > 100 | > 100 | 50.2 | > 100 | > 100 | > 100 | > 100 | > 100 |
| CNC(=O)Oc1ccc(-c2cn3cc(OC(=O)NC)ccc3n2)cc1 | > 100 | > 100 | > 100 | > 100 | > 100 | > 100 | > 100 | > 100 | 81.9 | > 100 | > 100 | > 100 | > 100 | 52.9 | > 100 | > 100 | – | > 100 | > 100 |
| COC(=O)[C@H](Cc1ccccc1)NC(=O)[C@H](Cc1ccccc1)NC(=O)[C@@H]1CCCN1C(=O)N[C@H]1C2C=CC(C2)C1C(=O)N1CCC[C@H]1C(=O)N[C@@H](C)C(=O)N[C@H](C(=O)OC)C(C)C (stereo not given in full) | > 100 | > 100 | > 100 | > 100 | > 100 | > 100 | > 100 | > 100 | – | > 100 | > 100 | > 100 | > 100 | 56.4 | > 100 | > 100 | > 100 | > 100 | – |
| Cc1cc(C)cc(Nc2cc(=O)[nH]c(=O)[nH]2)c1 | > 100 | > 100 | > 100 | > 100 | – | > 100 | > 100 | > 100 | > 100 | > 100 | > 100 | > 100 | > 100 | > 100 | > 100 | – | > 100 | > 100 | > 100 |
| O=C(NCCCCCCNCc1cccc2ccccc12)Nc1cccc2ccccc12 | > 100 | > 100 | > 100 | > 100 | > 100 | > 100 | > 100 | > 100 | > 100 | > 100 | > 100 | > 100 | > 100 | > 100 | > 100 | – | > 100 | > 100 | > 100 |
| CC1(CF)SCc2nc3ccccc3n21 (stereo not given) | > 100 | > 100 | > 100 | > 100 | > 100 | > 100 | > 100 | > 100 | > 100 | > 100 | > 100 | > 100 | > 100 | – | > 100 | > 100 | > 100 | > 100 | > 100 |
| NC(=O)NNC(=O)c1nc[nH]c1[N+](=O)[O-] | > 100 | > 100 | > 100 | > 100 | > 100 | > 100 | > 100 | > 100 | > 100 | > 100 | > 100 | > 100 | – | > 100 | > 100 | > 100 | > 100 | > 100 | > 100 |
| O=c1nc2c(c(-c3ccccc3Cl)[nH]1)COC/C2=C\c1ccccc1Cl | > 100 | > 100 | > 100 | > 100 | > 100 | > 100 | > 100 | > 100 | > 100 | > 100 | 97.4 | > 100 | > 100 | > 100 | > 100 | > 100 | – | > 100 | > 100 |
| CC1=NN(c2ccc(S(=O)(=O)O)cc2)C2(C1)SCC(=O)N2c1nc2ccccc2s1 (stereo not given) | > 100 | > 100 | > 100 | > 100 | > 100 | > 100 | > 100 | > 100 | > 100 | > 100 | > 100 | > 100 | > 100 | – | > 100 | > 100 | > 100 | > 100 | > 100 |
